“And” between values parts separate entries of the source, which are not always exact repeats. Identical values can stand only once. Like-named read-outs stand apart in the source and are kept apart here.
Conditions: rat; for Feces Excretion, Amount Excreted (% of Dose), 8 hours: collection 0-8 hours; for Feces Excretion, Amount Excreted (% of Dose), 120 hours / Urinary Excretion, Amount Excreted (% of Dose), 120 hours: collection 96-120 hours; for Feces Excretion, Amount Excreted (% of Dose), 144 hours / Urinary Excretion, Amount Excreted (% of Dose), 144 hours: collection 120-144 hours; for Feces Excretion, Amount Excreted (% of Dose), 168 hours / Urinary Excretion, Amount Excreted (% of Dose), 168 hours: collection 144-168 hours
[1] = intravenous 0.2 mg/kg (Group 1), Mean
[2] = intravenous 0.2 mg/kg (Group 1), individual animals, 0.2 mg/kg
[3] = intravenous 0.2 mg/kg (Group 1), collection 24-48 hours, individual animals, 0.2 mg/kg
[4] = intravenous 0.2 mg/kg (Group 1), collection 48-72 hours, Mean
[5] = intravenous 0.2 mg/kg (Group 1), collection 48-72 hours, individual animals, 0.2 mg/kg
[6] = intravenous 0.2 mg/kg (Group 1), collection 72-96 hours, Mean
[7] = intravenous 0.2 mg/kg (Group 1), collection 72-96 hours, individual animals, 0.2 mg/kg
[8] = intravenous 0.2 mg/kg (Group 1), necropsy Day 4, Mean
[9] = intravenous 0.2 mg/kg (Group 1), necropsy Day 4, individual animals, 0.2 mg/kg
[10] = intravenous 0.2 mg/kg (Group 1), necropsy Day 8, Mean
[11] = intravenous 0.2 mg/kg (Group 1), necropsy Day 8, individual animals, 0.2 mg/kg

With NCCCC(O)(P(=O)(O)O)P(=O)(O)O [14C-alendronate] the “Recovery from Treated Skin, % of Dose” value (dermal (Group 2), necropsy Day 8, individual animals) was 0.25% and 0.22% (2×) and 0.33% and 0.39%, the “Urinary Excretion, Total Excretion (% of Dose), 0-72 hours” value (in vivo) was 1.16% of Dose and the “Feces Excretion, Amount Excreted (% of Dose), 72 hours” value (in vivo, iv, 0.2 mg/kg) was 1.17% of Dose. For the same molecule, the “Feces Excretion, Amount Excreted (% of Dose), 96 hours” value (in vivo, iv, 0.2 mg/kg) was 1.17% of Dose, the “Urinary Excretion, Amount Excreted (% of Dose), 24 hours” value (in vivo, iv, 0.2 mg/kg) was 1.19% of Dose and 1.28% of Dose and 1.37% of Dose and 1.27% of Dose and 1.06% of Dose and the “Urinary Excretion, Total Excretion (% of Dose), 0-72 hours” value (in vivo, iv, 0.2 mg/kg) was 11.3% of Dose. The “Feces Excretion, Total Excretion (% of Dose), 0-72 hours” value [1] was 4.1% of Dose, the “Urinary Excretion, Total Excretion (% of Dose), 0-72 hours” value [1] was 7.3% of Dose and the “Feces Excretion, Amount Excreted (% of Dose), 8 hours” value [1] was 0.12% of Dose. For the same molecule, the “Feces Excretion, Amount Excreted (% of Dose), 8 hours” value [2] was 0.01% of Dose and 0.02% of Dose and 0.00% of Dose (3×) and 0.67% of Dose, the “Urinary Excretion, Amount Excreted (% of Dose), 24 hours” value (intravenous 0.2 mg/kg (Group 1), collection 8-24 hours, Mean) was 1.2% of Dose and the “Urinary Excretion, Amount Excreted (% of Dose), 24 hours” value (intravenous 0.2 mg/kg (Group 1), collection 8-24 hours, individual animals) was 0.94% of Dose. For the same molecule, the “Urinary Excretion, Amount Excreted (% of Dose), 48 hours” value (intravenous 0.2 mg/kg (Group 1), collection 24-48 hours, Mean) was 0.8% of Dose, the “Feces Excretion, Amount Excreted (% of Dose), 48 hours” value [3] was 0.47% of Dose and 0.92% of Dose and the “Urinary Excretion, Amount Excreted (% of Dose), 48 hours” value [3] was 0.78% of Dose and 0.94% of Dose and 0.75% of Dose and 0.95% of Dose and 0.34% of Dose and 0.85% of Dose. The “Feces Excretion, Amount Excreted (% of Dose), 72 hours” value [4] was 0.57% of Dose, the “Urinary Excretion, Amount Excreted (% of Dose), 72 hours” value [4] was 0.4% of Dose and the “Feces Excretion, Amount Excreted (% of Dose), 72 hours” value [5] was 0.15% of Dose and 0.24% of Dose and 0.44% of Dose and 0.87% of Dose. For the same molecule, the “Urinary Excretion, Amount Excreted (% of Dose), 72 hours” value [5] was 0.56% of Dose and 0.34% of Dose and 0.51% of Dose and 0.61% of Dose and 0.20% of Dose and 0.26% of Dose, the “Feces Excretion, Amount Excreted (% of Dose), 96 hours” value [6] was 0.55% of Dose and the “Urinary Excretion, Amount Excreted (% of Dose), 96 hours” value [6] was 0.5% of Dose. The “Feces Excretion, Amount Excreted (% of Dose), 96 hours” value [7] was 0.32% of Dose and 0.14% of Dose, the “Urinary Excretion, Amount Excreted (% of Dose), 96 hours” value [7] was 0.74% of Dose and 0.15% of Dose and 0.57% of Dose and the “Feces Excretion, Amount Excreted (% of Dose), 120 hours” value [1] was 0.41% of Dose. For the same molecule, the “Urinary Excretion, Amount Excreted (% of Dose), 120 hours” value [1] was 0.3% of Dose, the “Feces Excretion, Amount Excreted (% of Dose), 120 hours” value [2] was 0.56% of Dose and 0.12% of Dose and 0.54% of Dose and the “Urinary Excretion, Amount Excreted (% of Dose), 120 hours” value [2] was 0.43% of Dose and 0.11% of Dose and 0.27% of Dose. For the same molecule, the “Feces Excretion, Amount Excreted (% of Dose), 144 hours” value [1] was 0.34% of Dose, the “Urinary Excretion, Amount Excreted (% of Dose), 144 hours” value [1] was 0.3% of Dose and the “Feces Excretion, Amount Excreted (% of Dose), 144 hours” value [2] was 0.36% of Dose and 0.08% of Dose and 0.59% of Dose. The “Urinary Excretion, Amount Excreted (% of Dose), 144 hours” value [2] was 0.59% of Dose and 0.06% of Dose and 0.31% of Dose, the “Feces Excretion, Amount Excreted (% of Dose), 168 hours” value [1] was 0.04% of Dose and the “Urinary Excretion, Amount Excreted (% of Dose), 168 hours” value [1] was 0.2% of Dose. The “Feces Excretion, Amount Excreted (% of Dose), 168 hours” value [2] was 0.06% of Dose and 0.02% of Dose and 0.05% of Dose, the “Urinary Excretion, Amount Excreted (% of Dose), 168 hours” value [2] was 0.33% of Dose and 0.18% of Dose and 0.16% of Dose and the “Feces Excretion, Total Excretion (% of Dose), 0-72 hours” value [2] was 3.1% of Dose and 8.6% of Dose and 2.4% of Dose and 3.2% of Dose and 2.3% of Dose and 5.0% of Dose. For the same molecule, the “Feces Excretion, Total Excretion (% of Dose), 0-168 hours” value [2] was 5.6% of Dose and 3.1% of Dose and 8.2% of Dose, the “Urinary Excretion, Total Excretion (% of Dose), 0-72 hours” value [2] was 8.0% of Dose and 7.6% of Dose and 7.8% of Dose and 3.9% of Dose and 5.2% of Dose and the “Concentration in bone, Femur” value [8] was 0.500 μg 14C-alendronate/g bone. The “Concentration in bone, Tibia” value [8] was 0.492 μg 14C-alendronate/g bone, the “Concentration in bone, Femur” value [9] was 0.525 μg 14C-alendronate/g bone and 0.408 μg 14C-alendronate/g bone and 0.568 μg 14C-alendronate/g bone and the “Concentration in bone, Tibia” value [9] was 0.551 μg 14C-alendronate/g bone and 0.547 μg 14C-alendronate/g bone and 0.379 μg 14C-alendronate/g bone. For the same molecule, the “Concentration in bone, Femur” value [10] was 0.679 μg 14C-alendronate/g bone, the “Concentration in bone, Tibia” value [10] was 0.586 μg 14C-alendronate/g bone and the “Concentration in bone, Femur” value [11] was 0.707 μg 14C-alendronate/g bone and 0.692 μg 14C-alendronate/g bone and 0.639 μg 14C-alendronate/g bone. The “Concentration in bone, Tibia” value [11] was 0.704 μg 14C-alendronate/g bone and 0.680 μg 14C-alendronate/g bone and 0.374 μg 14C-alendronate/g bone.
